Experimental data reported in PubChem BioAssay AID623879 (Vanderbilt Specialized Chemistry Center, 2012).
Activity calls are given as the source filed them.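 How the source made its calls: active means fold shift at least 2 as potentiator or at most 0.5 as antagonist, actives on both sides; inactive means fold shift between 0.5 and 2.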

Target: Metabotropic glutamate receptor 3 (Rattus norvegicus) (UniProt P31422)
Assay: glutamate response shift at mGlu3 – cell-based, rat, GIRK thallium flux, selectivity assay for mGlu4 PAM optimization project, SAR follow-up (AID 623879)
Settings: rat mGlu3 cells, glutamate CRC shift, at 10 µM

Sequence of Metabotropic glutamate receptor 3 (Rattus norvegicus) (P31422 whole entry, looked up): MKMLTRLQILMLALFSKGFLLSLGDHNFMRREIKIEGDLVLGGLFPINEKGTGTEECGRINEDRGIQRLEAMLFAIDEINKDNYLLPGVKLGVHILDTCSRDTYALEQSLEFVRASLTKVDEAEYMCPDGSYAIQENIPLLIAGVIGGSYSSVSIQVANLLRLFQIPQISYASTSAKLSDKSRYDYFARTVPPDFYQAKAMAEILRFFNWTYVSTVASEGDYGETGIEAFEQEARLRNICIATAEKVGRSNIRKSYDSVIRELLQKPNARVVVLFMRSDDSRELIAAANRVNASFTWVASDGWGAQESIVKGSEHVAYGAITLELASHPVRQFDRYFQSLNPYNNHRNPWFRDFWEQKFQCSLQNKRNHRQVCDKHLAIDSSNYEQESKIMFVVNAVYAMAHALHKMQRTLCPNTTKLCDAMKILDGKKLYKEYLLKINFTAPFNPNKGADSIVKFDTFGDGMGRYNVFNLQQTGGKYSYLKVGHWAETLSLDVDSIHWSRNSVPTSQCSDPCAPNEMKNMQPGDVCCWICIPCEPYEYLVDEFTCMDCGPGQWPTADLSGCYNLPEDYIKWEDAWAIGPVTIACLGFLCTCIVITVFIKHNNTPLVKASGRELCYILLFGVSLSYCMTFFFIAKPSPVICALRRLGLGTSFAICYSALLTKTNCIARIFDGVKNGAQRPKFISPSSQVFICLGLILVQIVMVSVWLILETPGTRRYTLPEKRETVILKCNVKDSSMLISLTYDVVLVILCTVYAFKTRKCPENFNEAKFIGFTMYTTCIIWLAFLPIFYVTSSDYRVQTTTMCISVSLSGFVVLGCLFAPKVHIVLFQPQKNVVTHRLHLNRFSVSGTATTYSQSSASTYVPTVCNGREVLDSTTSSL

fold shift: 0.897 (inactive) | max response (measured here: glutamate max response with compound, stronger effect = higher value): 98.7%
Compound: O=C(Nc1cccc(Cl)c1)c1ccccn1
